Laboratory results as given in ChEMBL document CHEMBL1136134, “Novel coumarin derivatives of heterocyclic compounds as lipid-lowering agents” (2003).
Active and inactive are the calls of the source. The rule behind the calls is not given here.

test system: Mus musculus; assay: Plasma triglyceride lowering activity in swiss albino mice was determined after 3 mg/kg compound administered for 6 days; type: functional

SMILES | Activity [%]
CC(=O)Nc1cc2ccc(OCCc3nc(-c4ccccc4)oc3C)cc2oc1=O | 2
CCOc1cc2ccc(OCc3ccccc3F)cc2oc1=O | 25
CCOC(Cc1ccc(OCCN2c3ccccc3Oc3ccccc32)cc1)C(=O)O (configuration not stated) | 47
CCOc1cc2ccc(OC(C)(C)C(=O)O)cc2oc1=O | 16
CCOc1cc2ccc(OCCn3c(CC)nc(C)cc3=O)cc2oc1=O | 26
CCOc1cc2ccc(OCCn3ncc4ccccc4c3=O)cc2oc1=O | 45
CCOC(=O)c1cc2ccc(OCCc3nc(-c4ccccc4)oc3C)cc2oc1=O | 2
CCOc1cc2ccc(OCCc3nc(-c4ccccc4)oc3C)cc2oc1=O | 31
CCOc1cc2ccc(OCCn3ccc4ccccc43)cc2oc1=O | 27
Cc1oc(-c2ccccc2)nc1CCOc1ccc2cc(C(=O)O)c(=O)oc2c1 | 32

test system: Mus musculus; assay: Plasma triglyceride lowering activity in swiss albino mice was determined after 3 mg/kg compound administered for 6 days; Not effective; type: functional, organism-based; set-up: dose 3 mg/kg

SMILES | Activity
CCOc1cc2ccc(OCCn3c(CC)nc4ccccc4c3=O)cc2oc1=O | inactive
CC(=O)Nc1cc2ccc(OCCN(C)c3nc4ccccc4o3)cc2oc1=O | inactive
CCOc1cc2ccc(OCCN(C)c3nc4ccccc4o3)cc2oc1=O | inactive
CCOc1cc2ccc(OCCn3ncc4cc(C)ccc4c3=O)cc2oc1=O | inactive
O=C(O)c1cc2ccc(OCCn3ncc4ccccc4c3=O)cc2oc1=O | inactive
CCOc1cc2ccc(OCCN3c4ccccc4Oc4ccccc43)cc2oc1=O | inactive

test system: Mus musculus; assay: Plasma triglyceride lowering activity in swiss albino mice was determined after 30 mg/kg compound administered for 6 days; type: functional

SMILES | Activity [%]
CC(C)OC(=O)C(C)(C)Oc1ccc(C(=O)c2ccc(Cl)cc2)cc1 [FENOFIBRATE] | 36
